In brackets after ≈: the same amount, converted by molar mass.
Key:
[1] = Aqueous stability of the compound in phosphate buffer at pH 6.5 assessed as compound half life measured after 24 hrs by UPLC analysis; format: physicochemical; details: for t1/2: buffer, pH 6.5, 24 h, 24 h; for half-life: phosphate buffer, pH 6.5
[2] = Aqueous solubility of compound at pH 1 by UPLC analysis; format: physicochemical
[3] = Relative Cmax ratio of Atazanavir in Sprague-Dawley rat at 3 ml/kg,po measured upto 24 hrs by UPLC-MS/MS analysis; format: ADME; details: in vivo
[4] = Ratio of AUC of Atazanavir in Sprague-Dawley rat at 3 ml/kg,po measured upto 24 hrs by UPLC-MS/MS analysis; format: ADME; details: in vivo
[5] = Tmax in Sprague-Dawley rat at 3 ml/kg,po measured upto 24 hrs by UPLC-MS/MS analysis; format: ADME; details: in vivo
[6] = Ratio of Cmax/Cmin of Atazanavir in Sprague-Dawley rat at 3 ml/kg,po measured after 24 hrs by UPLC-MS/MS analysis; format: ADME; details: in vivo
[7] = Aqueous solubility of compound at pH 4 by UPLC analysis; format: physicochemical
[8] = AUClast in Sprague-Dawley rat at 3 ml/kg,po measured upto 24 hrs by UPLC-MS/MS analysis; format: ADME; set-up: time < 24 hrs, dose 3 ml/kg, route po; details: in vivo; for AUClast: 24 h
[9] = Cmax in Sprague-Dawley rat at 3 ml/kg,po measured upto 24 hrs by UPLC-MS/MS analysis; format: ADME; set-up: dose 3 ml/kg, time < 24 hrs, route po; details: in vivo
[10] = Aqueous stability of the compound in HCL at pH 1 assessed as compound half life measured after 24 hrs by UPLC analysis; format: physicochemical; details: for half-life: aqueous HCl, pH 1
[11] = Aqueous stability of the compound in acetate buffer at pH 4 assessed as compound half life measured after 24 hrs by UPLC analysis; format: physicochemical; details: for half-life: acetate buffer, pH 4; for t1/2: buffer, pH 4, 24 h, 24 h
[12] = Relative AUC ratio of Atazanavir in Sprague-Dawley rat at 3 ml/kg,po measured upto 24 hrs by UPLC-MS/MS analysis; format: ADME; details: in vivo
[13] = Fold ratio of total AUC of Atazanavir in Sprague-Dawley rat at 3 ml/kg,po measured upto 24 hrs by UPLC-MS/MS analysis; format: ADME; details: in vivo
[14] = Aqueous solubility of compound at pH 6.5 by UPLC analysis; format: physicochemical
[15] = AUClast in Sprague-Dawley rat at 30 ml/kg,po measured upto 24 hrs by UPLC-MS/MS analysis; format: ADME; set-up: time < 24 hrs, dose 30 ml/kg, route po; details: in vivo
[16] = Cmax in Sprague-Dawley rat at 30 ml/kg,po measured upto 24 hrs by UPLC-MS/MS analysis; format: ADME; set-up: time < 24 hrs, dose 30 ml/kg, route po; details: in vivo
[17] = Tmax in Sprague-Dawley rat at 30 ml/kg,po measured upto 24 hrs by UPLC-MS/MS analysis; format: ADME; details: in vivo
[18] = Fold ratio of total AUC of Atazanavir in Sprague-Dawley rat at 30 ml/kg,po measured upto 24 hrs by UPLC-MS/MS analysis; format: ADME; details: in vivo
[19] = Relative Cmax ratio of Atazanavir in Sprague-Dawley rat at 30 ml/kg,po measured upto 24 hrs by UPLC-MS/MS analysis; format: ADME; details: in vivo
[20] = Relative AUC ratio of Atazanavir in Sprague-Dawley rat at 30 ml/kg,po measured upto 24 hrs by UPLC-MS/MS analysis; format: ADME; details: in vivo
[21] = Ratio of AUC of Atazanavir in Sprague-Dawley rat at 30 ml/kg,po measured upto 24 hrs by UPLC-MS/MS analysis; format: ADME; details: in vivo
[22] = Ratio of Cmax/Cmin of Atazanavir in Sprague-Dawley rat at 30 ml/kg,po measured after 24 hrs by UPLC-MS/MS analysis; format: ADME; details: in vivo
[23] = aqueous medium, read-out: solubility

## COC(=O)N[C@H](C(=O)N[C@@H](Cc1ccccc1)[C@H](CN(Cc1ccc(-c2ccccn2)cc1)NC(=O)[C@@H](NC(=O)OC)C(C)(C)C)OC(=O)OC(OC(=O)[C@@H](N)C(C)C)C(C)(C)C)C(C)(C)C (mixture of isomers)
[1]
  t1/2: 65.4 h
[2]; [23]
  solubility: > 800 µg/mL
[3]
  Ratio: 5.8
[4]
  Ratio: 0.26
[5]; Sprague-Dawley, read-out: Tmax
  Tmax: 0.4 h
[6]
  Ratio: 235.5
[7]; [23]
  solubility: > 870 µg/mL
[8]
  AUClast: 1.057 µM·h
[9]; 24 h
  Cmax: 670 nM
[10]
  half-life: > 500 h
[11]
  half-life: > 500 h
[12]
  Ratio: 10.4
[13]
  Ratio: 13.2
[14]; [23]
  solubility: < 1 µg/mL

## COC(=O)N[C@H](C(=O)N[C@@H](Cc1ccccc1)[C@H](CN(Cc1ccc(-c2ccccn2)cc1)NC(=O)[C@@H](NC(=O)OC)C(C)(C)C)OC(=O)OC(OC(=O)[C@@H](N)Cc1ccccc1)C(C)C)C(C)(C)C (stereo in doubt; 3v)
[1]
  half-life: 10.7 h
[2]; [23]
  solubility: > 1520 µg/mL
[3]
  Ratio: 0.5
[4]
  Ratio: 0
[7]; [23]
  solubility: > 840 µg/mL
[10]
  half-life: 334 h
[11]
  half-life: 100 h
[12]
  Ratio: 0.3
[13]
  Ratio: 0.3
[14]; buffer
  solubility: < 1 µg/mL

## COC(=O)N[C@H](C(=O)N[C@@H](Cc1ccccc1)[C@H](CN(Cc1ccc(-c2ccccn2)cc1)NC(=O)[C@@H](NC(=O)OC)C(C)(C)C)OC(=O)OC(OC(=O)[C@@H](N)Cc1ccccc1)C(C)C)C(C)(C)C (stereo in doubt; 3w)
[1]
  t1/2: 12.7 h
[2]; buffer
  solubility: > 1670 µg/mL
[3]
  Ratio: 7.8
[4]
  Ratio: 0.01
[5]; Sprague-Dawley, read-out: Tmax
  Tmax: 0.3 h
[7]; buffer
  solubility: > 1630 µg/mL
[8]; Sprague-Dawley, 3 ml/kg
  AUC(0-t) at 24 h: 0.018 µM·h
[9]; Sprague-Dawley, 3 ml/kg
  Cmax: 50 nM
[10]; buffer, pH 1, 24 h
  t1/2: 334.3 h
[11]
  t1/2: 158.4 h
[12]
  Ratio: 3.7
[13]
  Ratio: 3.8
[14]; buffer
  solubility: > 890 µg/mL

## COC(=O)N[C@H](C(=O)N[C@@H](Cc1ccccc1)[C@H](CN(Cc1ccc(-c2ccccn2)cc1)NC(=O)[C@@H](NC(=O)OC)C(C)(C)C)OC(=O)OC(OC(=O)C1(N)CC1)C(C)C)C(C)(C)C (stereo in doubt; 3x)
[1]
  half-life: > 500 h
[2]; [23]
  solubility: > 1200 µg/mL
[3]
  Ratio: 1.4
[4]
  Ratio: 2.07
[5]; Sprague-Dawley, read-out: Tmax
  Tmax: 0.3 h
[7]; buffer
  solubility: > 950 µg/mL
[8]
  AUClast: 1.313 µM·h
[9]; Sprague-Dawley, 3 ml/kg
  Cmax: 1260 nM
[10]
  half-life: > 500 h
[11]
  half-life: > 500 h
[12]
  Ratio: 1.7
[13]
  Ratio: 5.1
[14]; buffer
  solubility: < 1.5 µg/mL

## COC(=O)N[C@H](C(=O)N[C@@H](Cc1ccccc1)[C@H](CN(Cc1ccc(-c2ccccn2)cc1)NC(=O)[C@@H](NC(=O)OC)C(C)(C)C)OC(=O)OC(OC(=O)C1(N)CC1)C(C)C)C(C)(C)C (stereo in doubt; 3y)
[2]; buffer
  solubility: > 1800 µg/mL
[3]
  Ratio: 2.1
[4]
  Ratio: 1.34
[5]; po, 24 h
  Tmax: 0.4 h
[6]
  Ratio: 31.8
[7]; buffer
  solubility: > 2100 µg/mL
[8]
  AUClast: 4.874 µM·h
[9]; 24 h
  Cmax: 835 nM
[12]
  Ratio: 9.5
[13]
  Ratio: 22.2
[14]; buffer
  solubility: 28 µg/mL (≈ 31 µM)

## COC(=O)N[C@H](C(=O)N[C@@H](Cc1ccccc1)[C@H](CN(Cc1ccc(-c2ccccn2)cc1)NC(=O)[C@@H](NC(=O)OC)C(C)(C)C)OC(=O)OC(OC(=O)[C@@H](N)C(C)C)C1CCCCC1)C(C)(C)C (stereo in doubt; 4n)
[1]
  t1/2: 27.4 h
[2]; [23]
  solubility: > 1300 µg/mL
[3]
  Ratio: 1.3
[4]
  Ratio: 2.47
[5]; Sprague-Dawley, read-out: Tmax
  Tmax: 0.5 h
[7]; [23]
  solubility: > 1400 µg/mL
[8]
  AUClast: 1.454 µM·h
[9]; 24 h
  Cmax: 991 nM
[10]
  half-life: > 500 h
[11]
  half-life: 334 h
[12]
  Ratio: 1.5
[13]
  Ratio: 5.3
[14]; [23]
  solubility: < 1 µg/mL

## COC(=O)N[C@H](C(=O)N[C@@H](Cc1ccccc1)[C@H](CN(Cc1ccc(-c2ccccn2)cc1)NC(=O)[C@@H](NC(=O)OC)C(C)(C)C)OC(=O)OC(OC(=O)[C@H](C(C)C)N(C)C)C(C)C)C(C)(C)C (stereo in doubt; 5g)
[1]
  half-life: > 500 h
[2]; buffer
  solubility: > 420 µg/mL
[3]
  Ratio: 2.1
[4]
  Ratio: 0.59
[5]; Sprague-Dawley, read-out: Tmax
  Tmax: 0.7 h
[6]
  Ratio: 194.1
[7]; [23]
  solubility: 140 µg/mL (≈ 148 µM)
[8]
  AUClast: 0.996 µM·h
[9]; 24 h
  Cmax: 382 nM
[10]
  half-life: > 500 h
[11]
  half-life: > 500 h
[12]
  Ratio: 4.4
[13]
  Ratio: 7
[14]; [23]
  solubility: < 1 µg/mL

## COC(=O)N[C@H](C(=O)N[C@@H](Cc1ccccc1)[C@H](CN(Cc1ccc(-c2ccccn2)cc1)NC(=O)[C@@H](NC(=O)OC)C(C)(C)C)OC(=O)OC(OC(=O)[C@H](C(C)C)N(C)C)C(C)C)C(C)(C)C (stereo in doubt; 5h)
[1]
  t1/2: 334.3 h
[2]; buffer
  solubility: > 1850 µg/mL
[15]
  AUC(0-t) at 24 h: 64.6 µM·h
[3]
  Ratio: 2.7
[4]
  Ratio: 2.57
[16]
  Cmax: 3580 nM
[5]; po, 24 h
  Tmax: 0.5 h
[6]
  Ratio: 22.7
[17]
  Tmax: 3 h
[7]; buffer
  solubility: 160 µg/mL (≈ 169 µM)
[8]
  AUClast: 11.628 µM·h
[9]; 24 h
  Cmax: 1880 nM
[18]
  Ratio: 3.38
[19]
  Ratio: 0.14
[20]
  Ratio: 0.29
[11]
  t1/2: 376.3 h
[12]
  Ratio: 11.8
[13]
  Ratio: 42.1
[21]
  Ratio: 10.81
[22]
  Ratio: 10.8

## COC(=O)N[C@H](C(=O)N[C@@H](Cc1ccccc1)[C@H](CN(Cc1ccc(-c2ccccn2)cc1)NC(=O)[C@@H](NC(=O)OC)C(C)(C)C)OC(=O)OC(OC(=O)[C@H](N)C(C)C)C(C)C)C(C)(C)C (stereo in doubt; 5i)
[1]
  half-life: 16.3 h
[2]; [23]
  solubility: > 1300 µg/mL
[3]
  Ratio: 5.3
[4]
  Ratio: 0.01
[5]; Sprague-Dawley, read-out: Tmax
  Tmax: 0.4 h
[6]
  Ratio: 389.4
[7]; [23]
  solubility: > 1800 µg/mL
[8]
  AUClast: 0.015 µM·h
[9]; 24 h
  Cmax: 19 nM
[10]
  half-life: > 500 h
[11]
  half-life: 376 h
[12]
  Ratio: 5.6
[13]
  Ratio: 5.6

## COC(=O)N[C@H](C(=O)N[C@@H](Cc1ccccc1)[C@H](CN(Cc1ccc(-c2ccccn2)cc1)NC(=O)[C@@H](NC(=O)OC)C(C)(C)C)OC(=O)OC(OC(=O)[C@@H](NC(=O)[C@@H](N)C(C)C)C(C)C)C(C)C)C(C)(C)C (stereo in doubt; 6e)
[1]
  half-life: 167 h
[2]; [23]
  solubility: > 1600 µg/mL
[3]
  Ratio: 3.3
[4]
  Ratio: 0.0004
[5]; Sprague-Dawley, read-out: Tmax
  Tmax: 0.3 h
[6]
  Ratio: 2936.7
[7]; [23]
  solubility: > 1100 µg/mL
[8]
  AUClast: 0.0005 µM·h
[9]; 24 h
  Cmax: 3 nM
[10]
  half-life: > 500 h
[11]
  half-life: > 500 h
[12]
  Ratio: 3.3
[13]
  Ratio: 3.3
[14]; buffer
  solubility: 76 µg/mL (≈ 74.6 µM)

## COC(=O)N[C@H](C(=O)N[C@@H](Cc1ccccc1)[C@H](CN(Cc1ccc(-c2ccccn2)cc1)NC(=O)[C@@H](NC(=O)OC)C(C)(C)C)OC(=O)OC(OC(=O)[C@@H](NC(=O)[C@@H](N)C(C)C)C(C)C)C(C)C)C(C)(C)C (stereo in doubt; 6f)
[1]
  t1/2: 94 h
[2]; buffer
  solubility: > 1000 µg/mL
[3]
  Ratio: 2.7
[4]
  Ratio: 0.15
[6]
  Ratio: 1414
[7]; buffer
  solubility: > 1400 µg/mL
[8]
  AUClast: 0.208 µM·h
[9]; 24 h
  Cmax: 235 nM
[11]
  t1/2: 376.3 h
[12]
  Ratio: 3.7
[13]
  Ratio: 4.2
[14]; buffer
  solubility: 8 µg/mL (≈ 7.85 µM)

From ChEMBL document CHEMBL5137093, “Improving Drug Delivery While Tailoring Prodrug Activation to Modulate Cmax and Cmin by Optimization of (Carbonyl)oxyalkyl Linker-Based Prodrugs of Atazanavir” (J Med Chem, 2022)
